Reference: PMC11099041, “Tissue distribution and retention drives efficacy of rapidly clearing VHL-based PROTACs” (Communications Medicine, 2024)
Read-outs that look alike come from different tables or passages of the source.

Experiment: Mouse pharmacokinetics in CD-1 mice (blood, kidney, liver, lung)
Format: in vivo
Details: for Tmax: mouse, dose = c0, matrix = c1 of the line
Description: For the PK study, a total of 42 male CD-1 mice weighing ~20-35 g were acquired from Lingchang/Vital River Laboratory Animal Co., Ltd. (Shanghai/Beijing, P.R. China) and divided into 2 treatment groups. […] was dosed with one low dose (1 mg/kg) and one high dose group (20 mg/kg). For the low-dose groups, nine animals were required for organ quantification with termination at 24 hours. For the high-dose groups, 12 animals were required for organ quantification with termination at 48 hours. The animal was administered either 1 mg/kg or 20 mg/kg of formulation solution (10% HP-β-CD in acetate buffer at pH 4.0) by IV bolus through the left lateral tail vein injection. […] Blood samples were placed on wet ice, mixed, then frozen and stored in a freezer set to -60 °C or lower until analysis. After the blood samples were collected at the terminal time points, the animals were sacrificed, and the liver, lung and kidney were harvested. The tissues were rinsed in cold water and then blotted on filter papers, weighed and homogenized using pre-cooled water at the ratio of 1:4. The tissue homogenate samples were kept at -70 °C until analysis. […] Working standard solutions were spiked into 25 μL of blank matrix on the sample plate. […] The supernatant (20 μL) was transferred into the MS injection plate, then diluted with water before injection for LC-MS/MS analysis. The concentrations of […] were quantified by an LC-MS/MS method. The LC-MS/MS system was a Waters Acquity UPLC System (Milford, MA) coupled to a Sciex Triple Quad 6500 Plus mass spectrometer (AB Sciex, Foster City, CA). The aqueous mobile phase for the analysis was 0.1% formic acid and 2 mM ammonium formate in water/ACN (v:v, 95:5) (A), and the organic mobile phase was 0.1% formic acid and 2 mM ammonium formate in ACN/water (v:v, 95:5) (B). […] Column temperature was set at 50 °C. […] The flow rate was set at 0.7 mL/min. […] The lower limit of quantitation in all matrices was 5.1 ng/mL. The mean time concentration profile was generated for each group, and an overall AUC was then calculated with these sparse samples of rats and mice. […] The following parameters were estimated whenever possible: C0, Back-extrapolated concentration at time 0; Cmax, Maximum observed concentration; Tmax, Time of maximum observed concentration; AUC0-t, Area under the concentration-time curve from hour 0 to the last measurable concentration, estimated by the linear trapezoidal rule; AUC0-336, Area under the concentration-time curve from hour 0 to hour 336, estimated by the linear trapezoidal rule; DN AUC0-336, Dose normalized AUC0-336, calculated as AUC0-336/dose level; […] AUC0-∞ = AUC0-t + Ct/λz, where Ct is the last measurable concentration and λz is the elimination rate constant; t1/2, Elimination half-life, determined by ln(2)/λz; CL, Clearance, calculated as dose/AUC0-inf; Vd, Volume of distribution based on the terminal phase, calculated as: dose/(λz × AUC0-∞) Nominal doses and sampling times were used. […] Embedded zeros were excluded from kinetic analysis.

[1] = male, CD-1, mouse, in vivo, 1 mg/kg, Kidney, 1 mg/kg IV, individual animals, read-out: Concentration (µM) from 1 mg/kg Dosing Kidney
[2] = male, CD-1, mouse, in vivo, 1 mg/kg, Kidney, 1 mg/kg IV, mean, read-out: Concentration (µM) from 1 mg/kg Dosing Kidney
[3] = male, CD-1, mouse, in vivo, 1 mg/kg, Liver, 1 mg/kg IV, individual animals, read-out: Concentration (µM) from 1 mg/kg Dosing Liver
[4] = male, CD-1, mouse, in vivo, 1 mg/kg, Liver, 1 mg/kg IV, mean, read-out: Concentration (µM) from 1 mg/kg Dosing Liver
[5] = male, CD-1, mouse, in vivo, 1 mg/kg, Lung, 1 mg/kg IV, individual animals, read-out: Concentration (µM) from 1 mg/kg Dosing Lung
[6] = male, CD-1, mouse, in vivo, 1 mg/kg, Lung, 1 mg/kg IV, mean, read-out: Concentration (µM) from 1 mg/kg Dosing Lung
[7] = male, CD-1, mouse, in vivo, 20 mg/kg, Blood, 20 mg/kg IV, individual animals, read-out: Concentration (µM) from 20 mg/kg Dosing Blood
[8] = male, CD-1, mouse, in vivo, 20 mg/kg, Blood, 20 mg/kg IV, mean, read-out: Concentration (µM) from 20 mg/kg Dosing Blood
[9] = male, CD-1, mouse, in vivo, 20 mg/kg, Kidney, 20 mg/kg IV, individual animals, read-out: Concentration (µM) from 20 mg/kg Dosing Kidney
[10] = male, CD-1, mouse, in vivo, 20 mg/kg, Kidney, 20 mg/kg IV, mean, read-out: Concentration (µM) from 20 mg/kg Dosing Kidney
[11] = male, CD-1, mouse, in vivo, 20 mg/kg, Liver, 20 mg/kg IV, mean, read-out: Concentration (µM) from 20 mg/kg Dosing Liver
[12] = male, CD-1, mouse, in vivo, 20 mg/kg, Lung, 20 mg/kg IV, individual animals, read-out: Concentration (µM) from 20 mg/kg Dosing Lung
[13] = male, CD-1, mouse, in vivo, 20 mg/kg, Lung, 20 mg/kg IV, mean, read-out: Concentration (µM) from 20 mg/kg Dosing Lung
[14] = male, CD-1, mouse, kidney, intravenous, 20 mg/kg, Kidney, 20 mg/kg IV, individual animals, read-out: Concentration (µM) from 20 mg/kg Dosing Kidney
[15] = male, CD-1, mouse, kidney, intravenous, 20 mg/kg, Kidney, 20 mg/kg IV, mean, read-out: Concentration (µM) from 20 mg/kg Dosing Kidney
[16] = male, CD-1, mouse, liver, intravenous, 20 mg/kg, Liver, 20 mg/kg IV, mean, read-out: Concentration (µM) from 20 mg/kg Dosing Liver
[17] = male, CD-1, mouse, lung, intravenous, 20 mg/kg, Lung, 20 mg/kg IV, mean, read-out: Concentration (µM) from 20 mg/kg Dosing Lung

**Q.** Which concentration at 4 h (male, CD-1, mouse, in vivo, 1 mg/kg, Blood, 1 mg/kg IV, mean, read-out: Concentration (µM) from 1 mg/kg Dosing Blood) does the source give for `Cc1ncsc1-c1ccc(C(C)NC(=O)C2CC(O)CN2C(=O)C(c2cc(N3CCC(CN4CCC(OC5CC(Oc6cc(N7C8CCC7CN(c7cc(-c9ccccc9O)nnc7N)C8)ccn6)C5)CC4)CC3)no2)C(C)C)cc1` (centres unmarked) [A947] here?
**A.** 0.005 µM

**Q.** What about the concentration at 4 h [1] of the same compound?
**A.** 0.753 µM

**Q.** And the concentration at 4 h [2]?
**A.** 0.561 µM

**Q.** And the concentration at 8 h [1]?
**A.** 0.282 µM

**Q.** What about the concentration at 8 h [2] of the same compound?
**A.** 0.32 µM

**Q.** What about the concentration at 24 h [1] of the same compound?
**A.** 0.019 µM

**Q.** What about the concentration at 24 h [2] of the same compound?
**A.** 0.023 µM

**Q.** And the concentration at 4 h [3]?
**A.** 0.071 µM

**Q.** And the concentration at 4 h [4]?
**A.** 0.079 µM

**Q.** What about the concentration at 8 h [3] of the same compound?
**A.** 0.057 µM

**Q.** What about the concentration at 8 h [4] of the same compound?
**A.** 0.045 µM

**Q.** And the concentration at 24 h (male, CD-1, mouse, in vivo, 1 mg/kg, Liver, 1 mg/kg IV, individual animals, BLOQ <5.1 ng/mL, read-out: Concentration (µM) from 1 mg/kg Dosing Liver)?
**A.** 0.006 µM

**Q.** What about the concentration at 24 h [4] of the same compound?
**A.** 0.006 µM

**Q.** And the concentration at 4 h [5]?
**A.** 0.098 µM

**Q.** And the concentration at 4 h [6]?
**A.** 0.094 µM

**Q.** And the concentration at 8 h [5]?
**A.** 0.048 µM

**Q.** What about the concentration at 8 h [6] of the same compound?
**A.** 0.062 µM

**Q.** What about the concentration at 24 h [5] of the same compound?
**A.** 0.014 µM

**Q.** What about the concentration at 24 h [6] of the same compound?
**A.** 0.014 µM

**Q.** And the concentration at 0.083 h [7]?
**A.** 13.3 µM

**Q.** And the concentration at 0.083 h [8]?
**A.** 11.1 µM

**Q.** And the concentration at 0.25 h [7]?
**A.** 4.28 µM

**Q.** And the concentration at 0.25 h [8]?
**A.** 3.65 µM

**Q.** And the concentration at 0.5 h [7]?
**A.** 2.54 µM

**Q.** And the concentration at 0.5 h [8]?
**A.** 1.93 µM

**Q.** And the concentration at 1 h [7]?
**A.** 0.951 µM

**Q.** What about the concentration at 1 h [8] of the same compound?
**A.** 0.847 µM

**Q.** What about the concentration at 2 h [7] of the same compound?
**A.** 0.294 µM

**Q.** And the concentration at 2 h [8]?
**A.** 0.252 µM

**Q.** What about the concentration at 4 h [8] of the same compound?
**A.** 0.154 µM

**Q.** And the concentration at 8 h [7]?
**A.** 0.048 µM

**Q.** And the concentration at 8 h [8]?
**A.** 0.047 µM

**Q.** And the concentration at 4 h [9]?
**A.** 16.9 µM

**Q.** What about the concentration at 4 h [10] of the same compound?
**A.** 14 µM

**Q.** And the concentration at 8 h [9]?
**A.** 6.14 µM

**Q.** What about the concentration at 8 h [10] of the same compound?
**A.** 8.43 µM

**Q.** And the concentration at 4 h [11]?
**A.** 48.4 µM

**Q.** And the concentration at 8 h (male, CD-1, mouse, in vivo, 20 mg/kg, Liver, 20 mg/kg IV, individual animals, read-out: Concentration (µM) from 20 mg/kg Dosing Liver)?
**A.** 15.1 µM

**Q.** And the concentration at 8 h [11]?
**A.** 19.2 µM

**Q.** What about the concentration at 4 h [12] of the same compound?
**A.** 5.1 µM

**Q.** What about the concentration at 4 h [13] of the same compound?
**A.** 5.75 µM

**Q.** And the concentration at 8 h [12]?
**A.** 1.59 µM

**Q.** And the concentration at 8 h [13]?
**A.** 2.31 µM

**Q.** And the concentration at 24 h [14]?
**A.** 0.28 µM

**Q.** And the concentration at 24 h [15]?
**A.** 0.361 µM

**Q.** And the concentration at 48 h [14]?
**A.** 0.11 µM

**Q.** And the concentration at 48 h [15]?
**A.** 0.086 µM

**Q.** And the Kp (male, CD-1, mouse, kidney, intravenous, 20 mg/kg, for the 2 dose levels (1, 20 mg/kg), read-out: Tissue-to-blood AUC ratio, kidney)?
**A.** 160 to 243

**Q.** What about the concentration at 24 h (male, CD-1, mouse, liver, intravenous, 20 mg/kg, Liver, 20 mg/kg IV, individual animals, read-out: Concentration (µM) from 20 mg/kg Dosing Liver) of the same compound?
**A.** 14.3 µM

**Q.** What about the concentration at 24 h [16] of the same compound?
**A.** 10.8 µM

**Q.** And the concentration at 48 h [16]?
**A.** 1.9 µM

**Q.** What about the Kp (male, CD-1, mouse, liver, intravenous, for the 2 dose levels, read-out: Tissue-to-blood AUC ratio, liver) of the same compound?
**A.** 50 to 127

**Q.** And the concentration at 24 h [17]?
**A.** 0.602 µM

**Q.** And the concentration at 48 h [17]?
**A.** 0.658 µM

**Q.** And the Kp (male, CD-1, mouse, lung, intravenous, for the 2 dose levels, read-out: Tissue-to-blood AUC ratio, lung)?
**A.** 26 to 50

**Q.** And the clearance (male, CD-1, mouse, whole blood, iv, CD-1 mice IV, blood, dose = c0)?
**A.** 15 to 20 mL/min/kg

**Q.** And the Tmax (male, blood, kidney, liver, lung (per row, column Matrix), CD-1 mice IV)?
**A.** 0.083 h

**Q.** And the Tmax (male, kidney, liver, lung, CD-1 mice IV)?
**A.** 4 h

**Q.** What about the “Initial decrease of concentration in blood” value (mice IV 1 and 20 mg/kg, within initial 4 hours) of the same compound?
**A.** > 90%
